Reference: BindingDB's records for doi:10.1016/0960-894X(95)00494-E (1995)

Target: Xaa-Pro dipeptidase (Sus scrofa)
Assay: Inhibitory activity against porcine kidney prolidase

NCC(=O)[C@@H]1CCC[C@H]1C(=O)O [2-((1R,2R)-2-Carboxy-cyclopentyl)-2-oxo-ethyl-ammonium; chloride]
Ki: 270 nM
